Laboratory results: the supplement of paper PMC10307832

How the values were obtained:
Assay in all cases: relative viability (nuclei count vs DMSO), 5 days (fraction); higher = more cells survive
[1] = compound: COc1cc2ncn(-c3cc(OCc4ccccc4C(F)(F)F)c(C(N)=O)s3)c2cc1OC + Nc1ncn([C@H]2C[C@H](O)[C@@H](CO)O2)c(=O)n1 [Decitabine] (partner 2 µM)
Method in brief: (§1)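 Nuclei were stained with Hoechst during a one-step fixation (final 0.05% Triton X-100, 1% formaldehyde, 1 ug/ml Hoechst) carried out 5 days after dosing, then counted on 4× images. The cells, lung cancer lines in 1536-well plates, had been dosed by pin tool the day after seeding with one drug alone or a fixed anchor-drug dose plus five library-drug doses (not always all listed) in √10 steps. Relative viability is the nuclei count in treated wells divided by that in vehicle wells, and each value is the median of duplicate plates.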

[2] = compound: COc1cc2ncn(-c3cc(OCc4ccccc4C(F)(F)F)c(C(N)=O)s3)c2cc1OC + NC(=O)Nc1cc(-c2cccc(F)c2)sc1C(=O)N[C@H]1CCCNC1 [AZD7762] (partner 0.2 µM)
Method in brief: as §1

[3] = compound: COc1cc2ncn(-c3cc(OCc4ccccc4C(F)(F)F)c(C(N)=O)s3)c2cc1OC + O=C(c1cc(Cc2n[nH]c(=O)c3ccccc23)ccc1F)N1CCN(C(=O)C2CC2)CC1 [Olaparib] (partner 8 µM)
Method in brief: as §1

[4] = compound: COc1cc2ncn(-c3cc(OCc4ccccc4C(F)(F)F)c(C(N)=O)s3)c2cc1OC + CS(=O)(=O)CCNCc1ccc(-c2ccc3ncnc(Nc4ccc(OCc5cccc(F)c5)c(Cl)c4)c3c2)o1 [Lapatinib] (partner 2 µM)
Method in brief: as §1

Cell Line	relative viability ([1]; first compound 0.05 µM)	relative viability ([1]; first compound 0.1581 µM)	relative viability ([1]; first compound 0.5 µM)	relative viability ([1]; first compound 1.581 µM)	relative viability ([1]; first compound 5 µM)	relative viability ([2]; first compound 0.05 µM)	relative viability ([2]; first compound 0.1581 µM)	relative viability ([2]; first compound 0.5 µM)	relative viability ([2]; first compound 1.581 µM)	relative viability ([2]; first compound 5 µM)	relative viability ([3]; first compound 0.05 µM)	relative viability ([3]; first compound 0.1581 µM)	relative viability ([3]; first compound 0.5 µM)	relative viability ([3]; first compound 1.581 µM)	relative viability ([3]; first compound 5 µM)	relative viability ([4]; first compound 0.05 µM)	relative viability ([4]; first compound 0.1581 µM)	relative viability ([4]; first compound 0.5 µM)	relative viability ([4]; first compound 1.581 µM)	relative viability ([4]; first compound 5 µM)
LCLC-97TM1	0.246	0.238	0.196	0.139	0.114	0.355	0.293	0.161	0.0896	0.0604	0.201	0.222	0.189	0.0731	0.0698	0.802	0.893	0.343	0.175	0.161
LK-2	0.271	0.236	0.133	0.131	0.0977	0.386	0.366	0.202	0.115	0.126	0.681	0.345	0.215	0.16	0.0981	1.01	0.841	0.437	0.217	0.222
LOU-NH91	0.841	0.84	0.761	0.513	0.344	0.774	0.818	0.638	0.41	0.277	0.893	0.89	0.688	0.382	0.273	0.768	0.793	0.676	0.444	0.499
LU99A	0.767	0.825	0.604	0.194	0.191	0.306	0.385	0.226	0.132	0.0907	0.241	0.273	0.225	0.152	0.108	1	0.948	0.577	0.226	0.183
LXF-289	0.434	0.363	0.274	0.129	0.108	1.1	1	0.983	0.134	0.0617	0.704	0.817	0.269	0.0639	0.0504	0.912	0.709	0.647	0.147	0.0707
NCI-H23	0.296	0.281	0.176	0.191	0.151	0.196	0.261	0.199	0.0923	0.0935	0.187	0.239	0.166	0.128	0.0947	1.22	0.789	0.451	0.159	0.141
NCI-H322M	0.676	0.73	0.581	0.446	0.415	0.593	0.722	0.498	0.451	0.413	0.717	0.778	0.594	0.475	0.423	0.572	0.578	0.548	0.302	0.257
NCI-H358	0.228	0.179	0.219	0.115	0.138	0.541	0.493	0.419	0.193	0.14	0.552	0.516	0.195	0.0846	0.078	0.553	0.435	0.371	0.175	0.145
NCI-H460	0.495	0.15	0.257	0.0216	0.0165	0.63	0.654	0.554	0.0553	0.0434	0.468	0.357	0.0734	0.0365	0.0215	1.03	0.592	0.486	0.0094	0.0099
NCI-H596	1.6	1.13	0.935	0.817	0.425	1.1	1.14	0.943	0.664	0.413	0.542	0.692	0.765	0.413	0.306	1.1	1.22	0.911	0.586	0.33
NCI-H647	0.381	0.275	0.168	0.131	0.107	0.356	0.491	0.248	0.0314	0.026	0.474	0.331	0.103	0.0536	0.0596	0.97	0.935	0.448	0.0772	0.0798
NCI-H650	0.329	0.309	0.261	0.175	0.236	1.21	1.01	0.92	0.561	0.581	0.367	0.41	0.26	0.15	0.272	0.903	1.2	0.531	0.171	0.247
NCI-H727	1.03	0.927	0.825	0.616	0.568	0.712	0.495	0.504	0.527	0.487	0.676	0.672	0.68	0.489	0.535	0.803	0.694	0.541	0.338	0.296
NCI-H838	0.401	0.426	0.328	0.169	0.135	0.968	0.916	0.73	0.609	0.581	0.491	0.679	0.365	0.0997	0.121	1.02	1.04	0.638	0.114	0.101
NCI-H1355	0.29	0.333	0.282	0.187	0.169	0.793	0.747	0.456	0.163	0.137	0.486	0.671	0.3	0.15	0.128	0.966	0.964	0.771	0.22	0.152
NCI-H1395	0.736	0.753	0.596	0.373	0.342	0.454	0.396	0.377	0.323	0.316	0.441	0.476	0.414	0.326	0.314	0.928	1.37	0.818	0.354	0.41

Cell Line	relative viability ([1]; first compound 0.05 µM)	relative viability ([1]; first compound 0.1581 µM)	relative viability ([1]; first compound 0.5 µM)	relative viability ([1]; first compound 1.581 µM)	relative viability ([1]; first compound 5 µM)	relative viability ([2]; first compound 0.05 µM)	relative viability ([2]; first compound 0.1581 µM)	relative viability ([2]; first compound 0.5 µM)	relative viability ([2]; first compound 1.581 µM)	relative viability ([2]; first compound 5 µM)	relative viability ([3]; first compound 0.05 µM)	relative viability ([3]; first compound 0.1581 µM)	relative viability ([3]; first compound 0.5 µM)	relative viability ([3]; first compound 1.581 µM)	relative viability ([3]; first compound 5 µM)	relative viability ([4]; first compound 0.05 µM)	relative viability ([4]; first compound 0.1581 µM)	relative viability ([4]; first compound 0.5 µM)	relative viability ([4]; first compound 1.581 µM)	relative viability ([4]; first compound 5 µM)
NCI-H1437	0.564	0.561	0.34	0.266	0.272	1.24	1.09	0.6	0.198	0.154	0.658	0.511	0.272	0.232	0.194	0.865	0.699	0.243	0.136	0.113
NCI-H1651	0.619	0.64	0.463	0.192	0.263	0.415	0.518	0.32	0.37	0.303	0.18	0.157	0.15	0.14	0.153	0.916	0.96	0.365	0.103	0.108
NCI-H1666	0.749	0.719	0.693	0.501	0.424	0.84	0.881	0.8	0.555	0.483	0.79	0.786	0.622	0.56	0.466	0.905	0.674	0.298	0.229	0.325
NCI-H1734	0.382	0.588	0.469	0.214	0.157	0.588	0.608	0.511	0.18	0.134	0.235	0.646	0.247	0.212	0.144	1.14	0.986	0.792	0.241	0.186
NCI-H1755	0.702	0.682	0.716	0.57	0.397	0.431	0.525	0.397	0.373	0.259	0.816	0.827	0.714	0.447	0.319	1.03	1.09	0.868	0.33	0.281
NCI-H1792	0.503	0.65	0.411	0.0575	0.0384	0.61	0.71	0.472	0.0325	0.0304	0.152	0.273	0.457	0.0375	0.0338	0.935	0.834	0.868	0.24	0.0845
NCI-H1793	0.244	0.469	0.408	0.223	0.137	0.463	0.407	0.301	0.148	0.103	0.216	0.837	0.436	0.177	0.117	0.741	0.84	0.409	0.306	0.209
NCI-H1915	0.249	0.261	0.228	0.143	0.0992	0.709	0.862	0.597	0.161	0.097	0.232	0.211	0.176	0.108	0.0766	1.03	0.961	0.803	0.134	0.0963
NCI-H1944	0.468	0.465	0.399	0.235	0.153	0.546	0.545	0.426	0.168	0.0968	0.415	0.445	0.304	0.152	0.122	0.972	1	0.729	0.165	0.114
NCI-H1975	0.359	0.302	0.27	0.153	0.142	0.737	0.751	0.564	0.433	0.261	0.464	0.651	0.319	0.168	0.146	0.862	0.809	0.411	0.189	0.161
NCI-H1993	0.448	0.631	0.506	0.364	0.413	0.921	0.814	0.53	0.418	0.381	0.952	1.14	0.742	0.535	0.462	0.954	0.852	0.594	0.466	0.51
NCI-H2085	0.508	0.502	0.431	0.36	0.363	0.969	0.964	0.862	0.39	0.248	0.658	0.721	0.481	0.367	0.306	0.824	0.748	0.527	0.347	0.322
NCI-H2087	0.317	0.227	0.152	0.0875	0.106	1.37	1.22	0.575	0.12	0.109	0.432	0.493	0.346	0.098	0.0728	0.995	1.06	0.582	0.175	0.121
NCI-H2126	0.571	0.605	0.556	0.261	0.227	1.05	1.03	0.881	0.446	0.258	0.813	0.86	0.449	0.238	0.241	0.772	0.776	0.636	0.352	0.244
NCI-H2170	0.49	0.458	0.285	0.151	0.166	0.889	0.765	0.306	0.146	0.166	0.566	0.444	0.166	0.168	0.148	0.262	0.241	0.244	0.221	0.2
NCI-H2347	0.556	0.589	0.531	0.499	0.482	0.832	0.726	0.716	0.435	0.393	0.491	0.569	0.504	0.513	0.471	0.943	0.788	0.858	0.507	0.62
